# Values of other authors as cited in patent US20110200560A1, “NON-IONIC SELF-ASSEMBLING PEPTIDES AND USES THEREOF” (MASSACHUSETTS INSTITUTE OF TECHNOLOGY, priority 2009, published 2011).
# Like-named read-outs stand apart in the source and are kept apart here.
# Key:
# [1] = tested on: human umbilical vein endothelial cells (HIVEC)
# [2] = tested on: human umbilical vein endothelial cell (HUVEC); conditions: from RADA 16-I scaffold, without additional soluble growth factors
substance,measurement,setting,value
AASIKVAVSADR (Mammalian),activity of neurite extension by PC12 cells,PC12 cells,promoted activity of neurite extension
CSRARKQAASIKVAVSADR (Mammalian) [Laminin-1 peptide],degradation of Matrigel matrix by human umbilical vein endothelial cells,[1],induced degradation of Matrigel matrix
KAFDITYVRLKF (Mammalian),HUVEC adhesion,HUVEC,promoted
same,HUVEC tube formation,HUVEC,promoted
same,neurite outgrowth,neuronal cell,promoted
same,neuronal cell adhesion,neuronal cell,promoted
PDSGR (Mammalian),cell adhesion,cell adhesion,promoted cell adhesion
RAD/KLT: RADA16 peptide scaffold containing motif from vascular endothelial growth factor (KLTWQELYQLKYKGI) (SEQ ID NO: 78) (Mammalian),HUVEC unidirectional migration in response to functional peptide scaffolds,[2],directionally migrated
same,HUVEC unidirectional migration in response to functional peptide scaffolds,[2]; listed as KLT,induced cell migration
RAD/PRG: RADA16 peptide scaffold containing active motif with 2 units RGD motif (PRGDSGYRGDS) (SEQ ID NO: 77) (Mammalian),HUVEC unidirectional migration in response to functional peptide scaffolds,[2],directionally migrated
same,HUVEC unidirectional migration in response to functional peptide scaffolds,[2]; listed as PRG,induced cell migration
RYVVLPR (Mammalian),cell adhesion,cell adhesion,promoted cell adhesion
YIGSR (Mammalian),cell adhesion,cell adhesion,promoted cell adhesion
